The test concerns the target T1, double mutant IDE (Gln363Ala, His332Ala) (Homo sapiens, UniProt P14735, H332A/Q363A).
T1 construct: made in house; host or cells: E. coli (BL21 inferred, as for the wild type)
T1 sequence (P14735 1-1019 H332A/Q363A): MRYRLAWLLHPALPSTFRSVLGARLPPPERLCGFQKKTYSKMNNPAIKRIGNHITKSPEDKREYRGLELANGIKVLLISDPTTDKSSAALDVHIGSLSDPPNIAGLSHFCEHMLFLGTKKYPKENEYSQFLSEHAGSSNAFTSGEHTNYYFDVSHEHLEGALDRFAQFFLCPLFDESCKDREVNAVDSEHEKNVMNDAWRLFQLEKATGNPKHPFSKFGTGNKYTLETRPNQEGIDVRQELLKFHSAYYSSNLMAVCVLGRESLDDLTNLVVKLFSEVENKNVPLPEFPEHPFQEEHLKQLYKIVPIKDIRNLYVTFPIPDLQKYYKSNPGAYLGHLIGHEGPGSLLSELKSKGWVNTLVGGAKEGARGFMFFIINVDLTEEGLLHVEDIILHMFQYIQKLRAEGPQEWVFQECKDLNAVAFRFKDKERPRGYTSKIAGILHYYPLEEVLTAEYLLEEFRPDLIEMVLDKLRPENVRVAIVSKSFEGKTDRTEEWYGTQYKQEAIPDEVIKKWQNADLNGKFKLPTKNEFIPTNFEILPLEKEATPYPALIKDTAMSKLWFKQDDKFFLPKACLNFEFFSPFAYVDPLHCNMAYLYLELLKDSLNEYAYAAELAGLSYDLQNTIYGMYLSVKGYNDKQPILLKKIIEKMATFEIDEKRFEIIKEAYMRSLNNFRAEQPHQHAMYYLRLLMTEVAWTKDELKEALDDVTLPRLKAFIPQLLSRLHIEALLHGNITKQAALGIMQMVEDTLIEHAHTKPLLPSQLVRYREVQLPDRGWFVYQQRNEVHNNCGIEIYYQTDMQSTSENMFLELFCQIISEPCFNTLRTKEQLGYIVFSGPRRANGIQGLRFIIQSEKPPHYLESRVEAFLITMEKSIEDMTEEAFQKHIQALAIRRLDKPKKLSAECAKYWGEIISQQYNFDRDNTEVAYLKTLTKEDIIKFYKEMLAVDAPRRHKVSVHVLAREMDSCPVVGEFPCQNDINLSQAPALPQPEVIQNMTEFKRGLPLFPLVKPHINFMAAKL
As to the kind of experiment: FITC-insulin-mAb degradation by double mutant IDE (Gln363Ala, His332Ala). Particulars: 20 µM D10. It counts as biochemical. The source says:
Since D10 has been found as the strongest activator of IDE towards the proteolysis of insulin, we analyzed the binding site of the compound D10 for the further analysis. According to the computational results, D10 binds to Gln363 at the IDE exosite and His332 (Fig. 1D). We carried out site-directed mutagenesis by replacing these amino acids into Ala in order to verify that D10 indeed binds to this region via these amino acids. We first mutated Gln363 to Ala and then expressed and purified mutant protein through nickel resin. The effect of D10 on the proteolytic activity of mutant IDE (Gln363Ala) was measured towards FITC-insulin-mAb degradation. […] The activation was about 49-fold in the presence of D10 with wild type IDE (Fig. 2B). Although mutant IDE activity was less responsive to D10 compound compared to wild type IDE, it appeared as if D10 were interacting with IDE through […] and could enhance the activity of mutant IDE. […]
The utility of these novel compounds were tested on degradation of insulin by IDE. […] The proteolysis of insulin by IDE was monitored by measuring the changes in fluorescence, where the reaction was carried out with 100 nM of FITC- insulin-mAb and IDE (80 ng) in 100 µl KH2PO4 buffer at a pH of 7.3. […] The increase in fluorescence was monitored by using Fluoroskan Ascent FL microplate reader (Thermo).

Results on one molecule are retold here after PMC3280214, “Structure Based Discovery of Small Molecules to Regulate the Activity of Human Insulin Degrading Enzyme” (PLoS ONE, 2012).

Molecules are shown by their SMILES.

Take `Cc1nn(-c2ccccc2)c2nc(-c3cccc([N+](=O)[O-])c3)n3c4ccccc4nc3c2c1=O` [Compound D10]: the “binding to exosite of double mutant IDE” value is recorded as “could not bind to IDE exosite”.
